Patent US20170334934A1, “Macrocyclic picolinamides as fungicides” (DOW AGROSCIENCES LLC, priority 2014, published 2017)
Like-named read-outs stand apart in the source and are kept apart here.

Experiments:
[1] = tested on: Mycosphaerella graminicola; Anamorph: Zymoseptoria tritici; test: Fungicidal activity: Leaf Blotch of Wheat (SEPTTR), wheat seedlings; assay type: in vivo; details: for pest or weed control at 121.5 g/ha: Low Volume (121.5 g/H)
Protocol: Example A: Evaluation of Fungicidal Activity: Leaf Blotch of Wheat (Mycosphaerella graminicola; Anamorph: Zymoseptoria tritici; Bayer Code […]) Technical grades of materials were dissolved in acetone, which were then mixed with nine volumes of water containing 110 ppm Triton X-100. The fungicide solutions were applied onto wheat seedlings using an automated booth sprayer to run-off. All sprayed plants were allowed to air dry prior to further handling. All fungicides were evaluated using the aforementioned method for their activity vs. all target diseases, unless stated otherwise. Wheat leaf blotch and brown rust activity were also evaluated using track spray applications, in which case the fungicides were formulated as EC formulations, containing 0.1% Trycol 5941 in the spray solutions. Wheat plants (variety Yuma) were grown from seed in a greenhouse in 50% mineral soil/50% soil-less Metro mix until the first leaf was fully emerged, with 7-10 seedlings per pot. These plants were inoculated with an aqueous spore suspension of Zymoseptoria tritici either prior to or after fungicide treatments. After inoculation the plants were kept in 100% relative humidity (one day in a dark dew chamber followed by two to three days in a lighted dew chamber at 20° C.) to permit spores to germinate and infect the leaf. The plants were then transferred to a greenhouse set at 20° C. for disease to develop. When disease symptoms were fully expressed on the 1st leaves of untreated plants, infection levels were assessed on a scale of 0 to 100 percent disease severity. Percent disease control was calculated using the ratio of disease severity on treated plants relative to untreated plants.

Puccinia triticina = test: Fungicidal activity: Wheat Brown Rust (PUCCRT), wheat seedlings; assay type: in vivo; details: for pest or weed control at 121.5 g/ha: Low Volume (121.5 g/H); for pest or weed control at 100 µg/mL: High Volume (100 ppm)
Protocol: Technical grades of materials were dissolved in acetone, which were then mixed with nine volumes of water containing 110 ppm Triton X-100. The fungicide solutions were applied onto wheat seedlings using an automated booth sprayer to run-off. All sprayed plants were allowed to air dry prior to further handling. All fungicides were evaluated using the aforementioned method for their activity vs. all target diseases, unless stated otherwise. Wheat leaf blotch and brown rust activity were also evaluated using track spray applications, in which case the fungicides were formulated as EC formulations, containing 0.1% Trycol 5941 in the spray solutions. Wheat plants (variety Yuma) were grown from seed in a greenhouse in 50% mineral soil/50% soil-less Metro mix until the first leaf was fully emerged, with 7-10 seedlings per pot. These plants were inoculated with an aqueous spore suspension of Zymoseptoria tritici either prior to or after fungicide treatments. After inoculation the plants were kept in 100% relative humidity (one day in a dark dew chamber followed by two to three days in a lighted dew chamber at 20° C.) to permit spores to germinate and infect the leaf. The plants were then transferred to a greenhouse set at 20° C. for disease to develop. When disease symptoms were fully expressed on the 1st leaves of untreated plants, infection levels were assessed on a scale of 0 to 100 percent disease severity. Percent disease control was calculated using the ratio of disease severity on treated plants relative to untreated plants. Example B: Evaluation of Fungicidal Activity: Wheat Brown Rust (Puccinia triticina; Synonym: Puccinia recondita f. sp. tritici; Bayer Code PUCCRT) Wheat plants (variety Yuma) were grown from seed in a greenhouse in 50% mineral soil/50% soil-less Metro mix until the first leaf was fully emerged, with 7-10 seedlings per pot. These plants were inoculated with an aqueous spore suspension of Puccinia triticina either prior to or after fungicide treatments. After inoculation the plants were kept in a dark dew room at 22° C. with 100% relative humidity overnight to permit spores to germinate and infect the leaf. The plants were then transferred to a greenhouse set at 24° C. for disease to develop. Fungicide formulation, application and disease assessment followed the procedures as described in the Example A.

[2] = 24 h, 1 Day Protectant, wheat, read-out: SEPTTR disease control rating, 1DP
[3] = 72 h, 3 Day Curative, wheat, read-out: SEPTTR disease control rating, 3DC
[4] = 24 h, 1 Day Protectant, read-out: PUCCRT disease control rating, 1DP
[5] = 72 h, 3 Day Curative, read-out: PUCCRT disease control rating, 3DC
[6] = 24 h, High Volume (100 ppm), 1 Day Protectant, wheat, read-out: SEPTTR disease control rating, 1DP
[7] = 72 h, High Volume (100 ppm), 3 Day Curative, wheat, read-out: SEPTTR disease control rating, 3DC

Structure (SMILES)	pest or weed control at 121.5 g/ha [1, 2] [%]	pest or weed control at 121.5 g/ha [1, 3] [%]	pest or weed control at 121.5 g/ha (Puccinia triticina; [4]) [%]	pest or weed control at 121.5 g/ha (Puccinia triticina; [5]) [%]	pest or weed control at 100 µg/mL ([1]; 24 h, read-out: SEPTTR disease control rating, 1DP) [%]	pest or weed control at 100 µg/mL ([1]; 72 h, read-out: SEPTTR disease control rating, 3DC) [%]	pest or weed control at 100 µg/mL (Puccinia triticina; [4]) [%]	pest or weed control at 100 µg/mL (Puccinia triticina; [5]) [%]	pest or weed control at 100 µg/mL [1, 6] [%]	pest or weed control at 100 µg/mL [1, 7] [%]
COc1ccnc(C(=O)N[C@H]2CCO[C@H](Cc3ccc(F)cc3)[C@@H](OC(=O)C(C)C)[C@H](C)OC2=O)c1OCOC(C)=O [Compound 74]	> 70	> 70	> 70	> 70						
CCCO[C@H]1[C@H](C)OC(=O)[C@@H](NC(=O)c2nccc(OC)c2O)CCO[C@@H]1Cc1ccc(F)cc1 [Compound 56, N-((2R,3S,4S,7S)-2-(4-fluorobenzyl)-4-methyl-6-oxo-3-propoxy-1,5-dioxonan-7-yl)-3-hydroxy-4-methoxypicolinamide]					> 70	> 70	> 70	> 70		
COc1ccnc(C(=O)N[C@H]2CCO[C@H](Cc3ccc(F)cc3)[C@@H](OC(=O)C(C)C)[C@H](C)OC2=O)c1O [Compound 54]							> 70	> 70	> 70	> 70
COc1ccnc(C(=O)N[C@H]2CCOC[C@@H](OCc3ccccc3)[C@H](C)OC2=O)c1OCOC(C)=O [Compound 96]	< 70	> 70	> 70	> 70						
C=C(C)CO[C@H]1[C@H](C)OC(=O)[C@@H](NC(=O)c2nccc(OC)c2O)CCO[C@@H]1CC [Compound 61]							> 70	> 70	< 70	> 70
COc1ccnc(C(=O)N[C@H]2CCOC[C@@H](OCC(C)C)[C@H](C)OC2=O)c1O [Compound 67]							> 70	> 70	> 70	> 70
COc1ccnc(C(=O)N[C@H]2CCO[C@H](Cc3ccc(F)cc3)[C@@H](Oc3ccccc3)[C@H](C)OC2=O)c1OCOC(C)=O [Compound 73]	> 70	> 70	> 70	> 70						
COc1ccc(C[C@H]2OCC[C@H](NC(=O)c3nccc(OC)c3OCOC(C)=O)C(=O)O[C@@H](C)[C@@H]2Oc2ccccc2)cc1 [Compound 87]	> 70	< 70	> 70	> 70						
C=CCO[C@H]1[C@H](C)OC(=O)[C@@H](NC(=O)c2nccc(OC)c2OCOC(C)=O)CCO[C@@H]1Cc1ccc(F)cc1 [Compound 78]	< 70	< 70	> 70	> 70						
COc1ccc(C[C@H]2OCC[C@H](NC(=O)c3nccc(OC)c3O)C(=O)O[C@@H](C)[C@@H]2OCC2CC2)cc1 [Compound 59]							> 70	> 70	< 70	> 70
CC[C@H]1OCC[C@H](NC(=O)c2nccc(OC)c2OCOC(C)=O)C(=O)O[C@@H](C)[C@@H]1Oc1ccc(F)cc1 [Compound 91]	> 70	> 70	> 70	> 70						
CC[C@H]1OCC[C@H](NC(=O)c2nccc(OC)c2OC(C)=O)C(=O)O[C@@H](C)[C@@H]1OC(=O)C(C)C [Compound 95]	< 70	> 70	> 70	> 70						
CC[C@H]1OCC[C@H](NC(=O)c2nccc(OC)c2O)C(=O)O[C@@H](C)[C@@H]1Oc1ccccc1 [Compound 63]							> 70	> 70	> 70	> 70
COc1ccnc(C(=O)N[C@H]2CCO[C@H](Cc3ccccc3)[C@@H](Oc3ccccc3)[C@H](C)OC2=O)c1O [Compound 57]							> 70	> 70	> 70	> 70
COc1ccc(C[C@H]2OCC[C@H](NC(=O)c3nccc(OC)c3O)C(=O)O[C@@H](C)[C@@H]2Oc2ccccc2)cc1 [Compound 60]							> 70	> 70	> 70	> 70
COc1ccnc(C(=O)N[C@H]2CCO[C@H](Cc3ccc(F)cc3)[C@@H](OC(=O)C(C)C)[C@H](C)OC2=O)c1OC(C)=O [Compound 76]	> 70	> 70	> 70	> 70						
COc1ccnc(C(=O)N[C@H]2CCOC[C@@H](OCCCC(F)(F)F)[C@H](C)OC2=O)c1O [Compound 68]							> 70	> 70	< 70	< 70
COc1ccnc(C(=O)N[C@H]2CCO[C@H](Cc3ccccc3)[C@@H](OCC(C)C)[C@H](C)OC2=O)c1OC(C)=O [Compound 71]	> 70	> 70	> 70	> 70						
C=CCO[C@H]1[C@H](C)OC(=O)[C@@H](NC(=O)c2nccc(OC)c2O)CCO[C@@H]1Cc1ccc(F)cc1 [Compound 55, N-((2R,3S,4S,7S)-3-(allyloxy)-2-(4-fluorobenzyl)-4-methyl-6-oxo-1,5-dioxonan-7-yl)-3-hydroxy-4-methoxypicolinamide]							> 70	> 70	> 70	> 70
COc1ccnc(C(=O)N[C@H]2CCO[C@H](Cc3ccc(F)cc3)[C@@H](Oc3ccccc3)[C@H](C)OC2=O)c1O [Compound 52]							> 70	> 70	> 70	> 70
COc1ccnc(C(=O)N[C@H]2CCO[C@H](Cc3ccccc3)[C@@H](Oc3ccccc3)[C@H](C)OC2=O)c1OC(C)=O [Compound 83]	> 70	> 70	> 70	> 70						
COc1ccnc(C(=O)N[C@H]2CCO[C@H](CC3CCCC3)[C@@H](Oc3ccccc3)[C@H](C)OC2=O)c1OCOC(C)=O [Compound 85]	> 70	> 70	> 70	> 70						
CC[C@H]1OCC[C@H](NC(=O)c2nccc(OC)c2OCOC(C)=O)C(=O)O[C@@H](C)[C@@H]1Oc1ccccc1 [Compound 90]	> 70	> 70	> 70	> 70						
CC[C@H]1OCC[C@H](NC(=O)c2nccc(OC)c2O)C(=O)O[C@@H](C)[C@@H]1OCC(C)C [Compound 62]							> 70	> 70	< 70	> 70
